Several values for one entry are separate records, joined by “and”; a condition that tells them apart may be missing. Identical values can stand only once. Toxic doses and inconclusive results are not listed.

The experiment deals with P388 leukemia ip, CD2F1 mice, survival T/C. Kind of experiment: NCI In Vivo Anticancer Drug Screen. Data for tumor model P388 Leukemia (intraperitoneal) in CD2F1 (CDF1) mice. The following applies: endpoint: median survival time, higher = longer survival. The method in brief: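 Mice carrying the transplanted tumor received test compound or vehicle. Survival was recorded in each group, and the value is the treated-group measurement divided by that of the vehicle-treated control group.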

Setting [1] is: dose: 60.0 mg/kg/injection, schedule: Q01DX005 (ip), vehicle: saline with Tween-80.
Where [2] appears, read: dose: 120.0 mg/kg/injection, schedule: Q01DX005 (ip), vehicle: saline with Tween-80.
Setting [3] is: dose: 240.0 mg/kg/injection, schedule: Q01DX005 (ip), vehicle: saline with Tween-80.
Setting [4] is: dose: 100.0 mg/kg/injection, schedule: Q04DX003 (ip), vehicle: saline.
[5] abbreviates: dose: 200.0 mg/kg/injection, schedule: Q04DX003 (ip), vehicle: saline.
[6] abbreviates: dose: 50.0 mg/kg/injection, schedule: Q01DX005 (ip), vehicle: Klucel (hydroxypropylcellulose) (HPC).
Where [7] appears, read: dose: 100.0 mg/kg/injection, schedule: Q01DX005 (ip), vehicle: Klucel (hydroxypropylcellulose) (HPC).
The mark [8] stands for this setting: dose: 200.0 mg/kg/injection, schedule: Q01DX005 (ip), vehicle: Klucel (hydroxypropylcellulose) (HPC).
[9] abbreviates: dose: 50.0 mg/kg/injection, schedule: Q01DX009 (ip), vehicle: Klucel (hydroxypropylcellulose) (HPC).
The mark [10] stands for this setting: dose: 100.0 mg/kg/injection, schedule: Q01DX009 (ip), vehicle: Klucel (hydroxypropylcellulose) (HPC).
The mark [11] stands for this setting: dose: 50.0 mg/kg/injection, schedule: Q01DX005 (ip), vehicle: saline with Tween-80.
Setting [12] is: dose: 100.0 mg/kg/injection, schedule: Q01DX005 (ip), vehicle: saline with Tween-80.
The mark [13] stands for this setting: dose: 15.0 mg/kg/injection, schedule: Q01DX005 (ip), vehicle: Klucel (hydroxypropylcellulose) (HPC).
Setting [14] is: dose: 30.0 mg/kg/injection, schedule: Q01DX005 (ip), vehicle: Klucel (hydroxypropylcellulose) (HPC).
Setting [15] is: dose: 60.0 mg/kg/injection, schedule: Q01DX005 (ip), vehicle: Klucel (hydroxypropylcellulose) (HPC).

In the case of `CCCCCCCC(=O)OCC(=O)[C@]1(O)Cc2c(O)c3c(c(O)c2[C@@H](OC2CC(N)C(O)C(C)O2)C1)C(=O)c1c(OC)cccc1C3=O` (stereo partly drawn), the T/C by setting is: (dose: 0.5 mg/kg/injection, schedule: Q01DX009 (ip), vehicle: saline sonified) 159 % of control; (dose: 0.5 mg/kg/injection, schedule: Q01DX009 (ip), vehicle: saline with Tween-80) 178 % of control; (dose: 0.5 mg/kg/injection, schedule: Q01DX009 (ip), vehicle: water) 158 % of control; (dose: 1.0 mg/kg/injection, schedule: Q01DX009 (ip), vehicle: saline sonified) 190 % of control; (dose: 1.0 mg/kg/injection, schedule: Q01DX009 (ip), vehicle: saline with Tween-80) 185 % of control; (dose: 1.0 mg/kg/injection, schedule: Q01DX009 (ip), vehicle: water) 181 % of control. For the same compound, the T/C is, setting by setting: (dose: 1.73 mg/kg/injection, schedule: Q04DX003 (ip), vehicle: water) 172 % of control; (dose: 2.0 mg/kg/injection, schedule: Q01DX009 (ip), vehicle: saline sonified) 231 % of control; (dose: 2.0 mg/kg/injection, schedule: Q01DX009 (ip), vehicle: water) 247 % of control; (dose: 2.88 mg/kg/injection, schedule: Q04DX003 (ip), vehicle: water) 198 % of control; (dose: 4.0 mg/kg/injection, schedule: Q01DX009 (ip), vehicle: saline with Tween-80) 209 % of control and 92 % of control; (dose: 4.0 mg/kg/injection, schedule: Q01DX009 (ip), vehicle: water) 104 % of control. For the same compound, the T/C runs as follows: (dose: 4.8 mg/kg/injection, schedule: Q04DX003 (ip), vehicle: water) 202 % of control; (dose: 8.0 mg/kg/injection, schedule: Q01DX009 (ip), vehicle: saline with Tween-80) 114 % of control; (dose: 8.0 mg/kg/injection, schedule: Q04DX003 (ip), vehicle: water) 190 % of control; (dose: 13.3 mg/kg/injection, schedule: Q04DX003 (ip), vehicle: water) 111 % of control.
As for `COC(=O)C(=O)C(C#N)c1ccc(C)cc1` (stereo not drawn), the T/C by setting is: under setting [1], 104 % of control; under setting [2], 104 % of control; under setting [3], 103 % of control.
Turning to `CCCCCCCCC(=O)CCCC`, the T/C was 109 % of control (dose: 50.0 mg/kg/injection, schedule: Q01DX009 (ip), vehicle: saline with Tween-80); 122 % of control (dose: 100.0 mg/kg/injection, schedule: Q01DX009 (ip), vehicle: saline with Tween-80); 100 % of control under setting [4]; 113 % of control under setting [5].
With `COc1ccc2nc(-c3ccc(Cl)cc3)cc(C(=O)O)c2c1`, the T/C by setting is: under setting [6], 99 % of control; under setting [7], 100 % of control; under setting [8], 100 % of control.
On to `O=C(O)CCC(=O)NCCOC(=O)CCC(=O)O`, for which the T/C reads like this: (dose: 50.0 mg/kg/injection, schedule: Q01DX009 (ip), vehicle: saline) 99 % of control; (dose: 100.0 mg/kg/injection, schedule: Q01DX009 (ip), vehicle: saline) 104 % of control; (dose: 200.0 mg/kg/injection, schedule: Q01DX009 (ip), vehicle: saline) 106 % of control.
Consider `c1ccc(Nc2nn[nH]n2)cc1`, for which the T/C by setting is: under setting [6], 109 % of control; under setting [7], 107 % of control; under setting [8], 109 % of control.
With `O=C(/C=C/c1ccccc1)C1CCCCC1`, the T/C is, setting by setting: under setting [9], 107 % of control; under setting [10], 107 % of control; (dose: 200.0 mg/kg/injection, schedule: Q01DX009 (ip), vehicle: Klucel (hydroxypropylcellulose) (HPC)) 106 % of control.
`COc1ccc2c(c1)OCCN(C)OC2c1ccccc1` (stereo not drawn): the T/C under setting [11] is 96 % of control and the T/C under setting [12] is 95 % of control.
`N#C/C(=C\c1ccc(Cl)cc1Cl)C(=O)N/N=C/c1ccc(Cl)cc1Cl`: the T/C by setting is: under setting [4], 95 % of control; under setting [5], 97 % of control; (dose: 400.0 mg/kg/injection, schedule: Q04DX003 (ip), vehicle: saline) 90 % of control.
Turning to `CC1NC(CCCCCCCCCCC2=CC(CCCCCCCCCCC3CCC(O)C(C)N3)C3CCCN3C2)CCC1O` (stereo not drawn), the T/C is, setting by setting: (dose: 0.93 mg/kg/injection, schedule: Q01DX005 (ip), vehicle: water) 95 % of control; (dose: 1.87 mg/kg/injection, schedule: Q01DX005 (ip), vehicle: water) 96 % of control; (dose: 3.75 mg/kg/injection, schedule: Q01DX005 (ip), vehicle: water) 91 % of control and 92 % of control and 94 % of control; (dose: 7.5 mg/kg/injection, schedule: Q01DX005 (ip), vehicle: water) 93 % of control.
As for `O=C(O)/C(=C/c1ccc([N+](=O)[O-])cc1)c1ccccc1`, the T/C was 102 % of control under setting [6], 95 % of control under setting [7] and 102 % of control under setting [8].
As to `CC1=CC(=O)C(O)C2(C)C1CC1OC(=O)C(OC(=O)c3ccccc3)C3(O)C4(C)OCC13C2C(O)C4O` (stereo not drawn), the T/C is 101 % of control (dose: 0.75 mg/kg/injection, schedule: Q01DX005 (ip), vehicle: saline + alcohol); 101 % of control (dose: 1.5 mg/kg/injection, schedule: Q01DX005 (ip), vehicle: saline + alcohol); 108 % of control (dose: 3.0 mg/kg/injection, schedule: Q01DX005 (ip), vehicle: saline + alcohol); 105 % of control (dose: 6.0 mg/kg/injection, schedule: Q01DX005 (ip), vehicle: saline + alcohol).
Consider `CNC(=S)NC(C)(C)C`, for which the T/C is 97 % of control under setting [13]; 97 % of control under setting [14]; 103 % of control and 98 % of control under setting [15].
Regarding `CN(C(=O)C(F)(F)F)[Si](C)(C)C`, the T/C is, setting by setting: under setting [11], 100 % of control; under setting [12], 105 % of control; (dose: 200.0 mg/kg/injection, schedule: Q01DX005 (ip), vehicle: saline with Tween-80) 95 % of control.
For `NC(=O)C1CCCN1C(=O)C1CCCN(Cc2cc(CN3CCCC(C(=O)N4CCCC4C(N)=O)C3)cc(CN3CCCC(C(=O)N4CCCC4C(N)=O)C3)c2)C1` (stereo not drawn), the T/C is, setting by setting: (dose: 60.0 mg/kg/injection, schedule: Q01DX005 (ip), vehicle: saline) 104 % of control; (dose: 120.0 mg/kg/injection, schedule: Q01DX005 (ip), vehicle: saline) 98 % of control; (dose: 240.0 mg/kg/injection, schedule: Q01DX005 (ip), vehicle: saline) 95 % of control.
`COC(=O)CCC(=O)Nc1ccccc1C(F)(F)F`: the T/C is, setting by setting: under setting [1], 102 % of control; under setting [2], 108 % of control; under setting [3], 107 % of control.
For the compound `O=C(N1CCCCCC1)N1CC1`, the T/C by setting is: under setting [9], 93 % of control; under setting [10], 118 % of control.
Consider `CCCCC[C@@H]1CC=CC(NC(=O)OCc2ccccc2)C1C=O` (stereo partly drawn), for which the T/C is, setting by setting: under setting [1], 100 % of control; under setting [2], 103 % of control; under setting [3], 105 % of control.
Turning to `CC[P+](c1ccccc1)(c1ccccc1)c1ccccc1`, the T/C is, setting by setting: (dose: 0.62 mg/kg/injection, schedule: Q01DX009 (ip), vehicle: saline with Tween-80) 111 % of control; (dose: 1.25 mg/kg/injection, schedule: Q01DX009 (ip), vehicle: saline with Tween-80) 104 % of control; (dose: 2.5 mg/kg/injection, schedule: Q01DX009 (ip), vehicle: saline with Tween-80) 112 % of control; (dose: 5.0 mg/kg/injection, schedule: Q01DX009 (ip), vehicle: saline with Tween-80) 119 % of control.
Turning to `Cc1cnc2cc(-c3ccccc3)[nH]c2n1`, the T/C under setting [13] is 90 % of control, the T/C under setting [14] was 87 % of control and the T/C under setting [15] is 88 % of control.
Turning to `CCCCC(CC)C(=O)N1CCOCC1` (stereo not drawn), the T/C is 100 % of control (dose: 100.0 mg/kg/injection, schedule: Q04DX003 (ip), vehicle: saline with Tween-80); 100 % of control (dose: 200.0 mg/kg/injection, schedule: Q04DX003 (ip), vehicle: saline with Tween-80); 100 % of control (dose: 400.0 mg/kg/injection, schedule: Q04DX003 (ip), vehicle: saline with Tween-80).

The values above are taken from PubChem BioAssay AID330 (DTP/NCI, 2004).
